Experimental data taken from a melting point compilation (Tetko et al.; mined from patent text by program, amines drawn as free bases though some values may be those of a salt).

SMILES | melting point
Cn1c(=O)oc2c(OC3CCCCO3)cccc21 (centres undefined) | 128 to 129 °C
C#Cc1ccc2c(c1)C(c1ccccc1)=NC(C)c1c(C(=O)OCC)ncn1-2 (centres undefined) | 197 to 199 °C
CSC(=NC#N)N1CCc2nc(NC(=N)N)sc2C1 | 224 to 227 °C
CCOCc1nc2cnc3cc(O)ccc3c2n1CC1COC(C)(C)O1 (centres undefined) | 239 to 240 °C
CCOC(=O)c1nc(NC)sc1-c1nc2ccc(C)cn2c1C | 225 to 227 °C
O=c1[nH]c(=O)n(C2CC(O)C(CO)O2)cc1C(I)=CI (centres undefined) | 103 to 105 °C
O=C(CCl)NC(NC(=O)c1ccccc1)C(Cl)(Cl)Cl (centres undefined) | 211 to 213 °C
Cc1cc(C)c(C)c(-c2cc3cnc(N)nc3nc2N)c1C | 327 to 331 °C
NC1CN(c2c(F)cc3c(=O)c(C(=O)O)cn(C4CC4)c3c2F)C1 | 214 to 216 °C
NCC(c1ccccc1)C(CN)c1ccccc1 (centres undefined) | 144 to 145 °C
COCCOC(=O)Nc1cc(N2CC=CCC2)nc2nc(=O)on12 | 195 to 196 °C
CCCNS(=O)(=O)c1cc(C(=O)CCC(=O)O)ccc1Cl | 106 °C
CN(CCc1ccncc1)C(=O)CCSc1cc(C(C)(C)C)c(O)c(C(C)(C)C)c1 | 129 to 132 °C
Cc1cc(=O)n(C2CCCCC2)n1C | 99 to 100 °C
Cc1ccc2c(=O)cc(CS(C)=O)oc2c1C (centres undefined) | 205 to 209 °C
Cc1nn(-c2c(Cl)cc(C(F)(F)F)cc2Cl)cc1S(C)(=O)=O | 168 to 169 °C
COc1ccccc1-c1nn(C(C)C(=O)N(C)C)cc1Cl (centres undefined) | 74 to 77 °C
CC(C)(C)c1cc(CCC(=O)NCCOC(=O)CCc2cc(C(C)(C)C)c(O)c(C(C)(C)C)c2)cc(C(C)(C)C)c1O | 151 to 154 °C
COC(=O)c1ccc(OCCc2c[nH]cn2)cc1 | 116 to 118 °C
COc1cccc2c1C(C)C(=O)N2C (centres undefined) | 73 to 74 °C
CC1(C)COC(C(=O)/C=C/[C@@H]2[C@H]3CC(=O)O[C@H]3C[C@H]2OC(=O)c2ccccc2)OC1 | 141 °C
CCOC(=O)CCCCOc1ccc([N+](=O)[O-])c(C=C2NC(=O)NC2=O)c1 | 127 to 129 °C
CCCCCCC(C)(C)c1ccc([C@@H]2CC(=O)C[C@@H](C#N)C2)c(OCc2ccccc2)c1 (relative stereo) | 79 °C
CCc1cccc(C)c1CNc1cc(Br)cc2c1nc(C)n2COCc1ccccc1 | 117 to 119 °C

SMILES | melting point
CSc1ccc(-c2c(C)nnc(Cl)c2-c2ncc(Cl)cc2Cl)nc1 | 163 °C
CC(=O)OCC(C)C1=CCC2C3CC=C4CC(OC(C)=O)CCC4(C)C3CCC12C (centres undefined) | 116 to 117 °C
COCCN(CCOC)C(=O)c1ccc(C(=O)N2CCN(c3ncccc3NC(C)C)CC2)cc1 | 82 to 83 °C
O=C(COc1ccccc1)N[C@H]1C(=O)N[C@H]1CO (relative stereo) | 153 to 154 °C
Cn1c(=O)c2c3oc4ccccc4oc3c3[nH]c4cc(O)ccc4c3c2c1=O | 360 °C
CNC(=O)C1(Nc2nc(Nc3cc4c(cc3OC)CCN(CC(=O)N(C)C)CC4)ncc2Cl)CC1 | 118 to 125 °C
CC1(C)CC(=O)C(c2c[nH]c3ccccc23)C(=O)C1 | 173 °C
O=S(=O)(NCCc1ccc(Nc2nnn[nH]2)cc1)c1ccc(Cl)cc1 | 148 to 150 °C
CC(C)(C)c1cc(CN2CC(N(O)C(=O)Oc3ccccc3)C2)cc(C(C)(C)C)c1O | 161 to 163 °C
CCCCCCCC[C@H](CC(=O)OC(C)(C)C)C(=O)N1C(=O)OC[C@@H]1C(C)C | 58 to 59 °C
O=C(CNC(=O)OCc1ccccc1)Nn1cccc1C(=O)c1ccccc1 | 96 to 98 °C
O=C(OCc1ccccc1)OCC1OC(n2cc(F)c(=O)[nH]c2=O)C(O)C1O (centres undefined) | 66 to 68 °C
C#CCN(Cc1cc2c(=O)n(C)c(COS(C)(=O)=O)nc2cc1Cl)c1ccc(C(=O)OC(C)(C)C)cc1 | 204 to 205 °C
CC(C)(C)OC(=O)c1ccc([N+](=O)[O-])c(OCCOc2cc(C(=O)OC(C)(C)C)ccc2[N+](=O)[O-])c1 | 155 to 157 °C
CCOC(=O)c1cc(OC2CCCCC2=O)[nH]n1 (centres undefined) | 122 to 124 °C
C=CCC(CC=C)C(=O)O[C@H]1C[C@H](O)C=C2C=C[C@H](C)[C@H](CC[C@@H]3C[C@@H](O)CC(=O)O3)[C@H]21 | 159 to 160 °C
COc1c(C)c2c(c(O)c1C/C=C(/Cl)CCC(=O)O)C(=O)OC2 | 135 to 137 °C
c1cc2ccc3occc3c2[nH]1 | 141 to 144 °C
CCOc1cc(OC)c2cc(C(=O)CN=[N+]=[N-])ccc2n1 | 129 to 132 °C
CC(=CC(CNC(=O)c1cccnc1)=NO)C(C)[N+](=O)[O-] (centres undefined) | 137 to 139 °C
Cc1ccc(NC(=O)c2ccc(C(=O)Nc3ccccc3NC(=O)OC(C)(C)C)s2)cc1Nc1nccc(-c2cccnc2)n1 | 206 to 208 °C
OCc1cc(Cl)c(F)c(Cl)c1F | 55 °C
COc1cc(OC)cc(C2CC=CCC2=O)c1 (centres undefined) | 60 to 62 °C
CCCN1C(=O)N2CCN=C2c2[nH]c(C3CCCC3)nc21 | 215 to 216 °C

The remaining lines, values ahead:

melting point | SMILES
156 °C | CCCCOCCOc1ccc(-c2ccc3c(c2)C=C(C(=O)Nc2ccc(/C(Cc4nccn4CCC)=N/OCC)cc2)CCN3CC(C)C)cc1
252 to 254 °C | O=C(O)C1=Cc2cc(-c3ccc(OC(F)(F)F)cc3)ccc2OCC1
50 to 56 °C | O=C(Cc1ccc(F)cc1)c1ccc(OC(F)F)cc1
80 °C | CCCc1c(OCC2Cc3cc(C(=O)CCC(=O)O)ccc3O2)ccc(C(C)=O)c1O (centres undefined)
184 to 185 °C | Cc1nc(NC(=O)Nc2ccc(N3CCN(C(=O)Nc4ccc(OCCO)cc4Cl)CC3)nc2)sc1C
165 to 166 °C | COc1ccc(C=CC(=O)c2ccc(O)cc2)c(OC)c1
126 to 128 °C | CC(C)(C)c1ccc(C(=O)c2ccccc2O)c(C(C)(C)C)c1O
145 to 147 °C | COc1ccc(Nc2ncccc2NS(=O)(=O)c2ccc(OC)cc2)cc1
57 to 59 °C | CCOC(=O)c1cnn(-c2c(Cl)cc(C(F)(F)F)cc2Cl)c1
229 to 231 °C | O=C(O)Cc1c(-c2ccccc2)nn(C2CCCCC2)c1-c1ccccc1
64 °C | CCCCCCCc1ccc(OC(=O)c2cc3c(s2)CC(CCCCC)C3)cc1 (centres undefined)
172 to 176 °C | CCn1ccc2ncnc(Oc3ccc(NC(=O)Nc4cccc(C(F)(F)F)c4)c(Cl)c3)c21
184 to 186 °C | Cc1nc(-c2ccc3c(=O)n(CC(C)C)c(CNC(=O)OC(C)(C)C)c(-c4ccccc4)c3c2)sc1C(=O)O
166 to 168 °C | CS(=O)(=O)N(C(=O)c1cc(Oc2ccc(C(F)(F)F)cc2Cl)ccc1[N+](=O)[O-])C(=O)c1cc(Oc2ccc(C(F)(F)F)cc2Cl)ccc1[N+](=O)[O-]
146 to 150 °C | O=C1CC(c2ccccc2)NC(=O)C1C(=O)c1ccccc1[N+](=O)[O-] (centres undefined)
91 to 96 °C | O=C(O)COc1ccc(C(=NO)c2ccccc2F)c(Cl)c1Cl
> 300 °C | O=c1[nH]c2cc(Cl)ccc2c(O)c1Sc1ccccc1Br
59 to 63 °C | COC(=O)CC1=c2ccccc2=Cc2ccccc2O1
154 to 156 °C | Cn1cc(C(=O)NCc2ccc(Cl)cc2)c(=O)c2cc(COCC[C@@H](O)c3ccccc3)sc21
145 to 147 °C | O=C(O)c1ccc(CCC(=O)c2ccccc2)cc1
54 to 55.2 °C | CCCCN(C)C(=O)OCCCc1ccc(OCCOC)cc1Oc1ncc(C(F)(F)F)cc1Cl
165 to 166 °C | N#Cc1cncc(-c2cccc(OCc3ccccc3)c2)c1Nc1ccc2[nH]ccc2c1
108 to 110 °C | CCN(CC)CCNC(=O)c1cc(I)cc2cc3ccccc3nc12

melting point | SMILES
168 to 169 °C | Cc1ccc(S(=O)(=O)OCC2Cn3c(nc4c(C)cccc43)-c3cccc(Cl)c3O2)cc1 (centres undefined)
108 to 109 °C | CC1(C)CCC(C)(C)c2cc(OCc3ccc(CO)cc3)ccc21
180 to 182 °C | O=C1C(=O)c2ccccc2C2=C1SCC(CN1CCN(c3ccc(F)cc3)CC1)O2 (centres undefined)
51 to 53 °C | CC(C)(O)c1ccc(CNC(=O)c2cccnc2Oc2cccc(S(C)(=O)=O)c2)cc1
148 to 149 °C | CC(=Cc1ccc(O)cc1)c1ccc2c(c1)C(C)(C)C(O)C2(C)C (centres undefined)
90 to 91 °C | Nc1cnc(-c2ccc(F)cc2)n(CC(=O)N[C@@H](Cc2ccccc2)C(=O)C(F)(F)C(=O)NCc2ccccc2)c1=O
108 to 109 °C | Oc1ccc(-c2nc3ccccc3s2)cc1
178 to 179 °C | CC(C)c1nc(C(C)C)c(CSc2ccc(O)cc2)c(-c2ccc(F)cc2)c1CO
211 to 215 °C | Cc1ccc2ccc(Cn3c(=S)sc4ccccc43)c(O)c2n1
142 to 146 °C | CC(=O)c1cc2c(Br)cccc2n1S(=O)(=O)c1ccccc1
170 to 172 °C | CC(=O)c1ccc(-c2ccc(OCc3nc4ccccc4s3)cc2)c(F)c1
208 °C | CNc1nc(C(=O)c2ccc([N+](=O)[O-])c(OC)c2)n2ccccc12
218 to 220 °C | CN(Cc1cc(C(F)(F)F)cc(C(F)(F)F)c1)C(=O)c1nc(O)ncc1-c1ccccc1
105 to 106 °C | CCCCCCOc1cc(-c2ccc3cc4c(cc3c2)C(C)(C)CCC4(C)C)ccc1C(=O)O
236 to 238 °C | O=c1[nH]c2ccccc2n1CCCN1CCN(c2n[nH]c3cc(F)ccc23)CC1
82 to 83 °C | CCOC(=O)C1=C2c3[nH]c4ccc(Cl)cc4c3CCN2CCC1
66 to 68 °C | COC(=O)C=Cc1ccc2c(c1)OCCO2
161 °C | NCCc1cc(Cl)c(NC(=O)CN2CCN(CCCCC(c3ccc(F)cc3)c3ccc(F)cc3)CC2C(N)=O)c(Cl)c1 (centres undefined)
195 to 196 °C | CCCc1nc2cccc(C(=O)OC)c2n1Cc1ccc(-c2ccccc2-c2nnn[nH]2)cc1
196 to 197 °C | COCCOc1cc2c(cc1-c1ccc(F)cc1)NC(=O)CC(c1cccc(-n3ccnc3)c1)=N2
139 to 144 °C | CCOC(=O)c1cnc2cc(C)nn2c1N(C)S(=O)(=O)c1ccc(Oc2ccncc2)cc1
126 to 128 °C | Nc1cc(C(=O)OCCN2CCCCC2)c2oc(-c3ccccc3)cc2c1
224 °C | COC(=O)Nc1nc2cc(C3(c4ccccc4)OCC(C)(C)CO3)ccc2[nH]1
